# Measured values taken from ChEMBL document CHEMBL1157260, “Cytotoxic diterpenes from Cassipourea madagascariensis from the Madagascar rainforest” (J Nat Prod, 2006).
# Tested on: A2780
# Experiment: Cytotoxicity against human A2780 cells by clonogenic assay
# Assay type: functional, cell-based
row,SMILES,IC50
1,C=C(CO)[C@@H]1CC[C@]2(C)CC[C@]3(C)[C@H](CC[C@@H]4[C@@]5(C)CCC(=O)C(C)(C)[C@@H]5CC[C@]43C)[C@@H]12,16.4 µg/mL
2,C=C(CO)[C@@H]1CC[C@]2(C)CC[C@]3(C)[C@H](CC[C@@H]4[C@@]5(C)CC[C@H](O)C(C)(C)[C@@H]5CC[C@]43C)[C@@H]12,12.2 µg/mL
3,C/C(=C\CO)CCCC(C)CC[C@H]1[C@@H](C)CCCC1(C)C (stereo not given in full) [CASSIPOUROL],2.4 µg/mL
4,CC(=O)OC/C=C(\C)CCCC(C)CC[C@H]1[C@@H](C)CCCC1(C)C (stereo not given in full) [CASSIPOURYL ACETATE],2.8 µg/mL
5,COc1cc(O)c2c(=O)c(OC)c(-c3cc(OC)c(OC)c(OC)c3)oc2c1 [COMBRETOL],8.7 µg/mL
